Experimental data: the NIST ThermoML archive (doi:10.1021/je901043q)
± gives the expanded uncertainty stated by the source.

Columns and labels:
[1] = xn = mol fraction of the nth substance listed; conditions: 101 kPa, Liquid
[2] = 101 kPa, Liquid

CCCCCCCO [heptan-1-ol] + CCCCn1cc[n+](C)c1.N#C[S-]
[1], x2 = 0
Conditions | mass density [kg/m3] | viscosity [mPa·s]
298.15 K | 818.81 ± 0.28 | 5.851 ± 0.18
308.15 K | 811.73 ± 0.28 | 4.26 ± 0.14
318.15 K | 804.55 ± 0.28 | 3.184 ± 0.11
328.15 K | 797.22 ± 0.29 | 2.434 ± 0.091
338.15 K | 789.75 ± 0.29 | 1.9 ± 0.078
348.15 K | 782.08 ± 0.3 | 1.512 ± 0.068

CCCCCCCCCO [nonan-1-ol]
[2]
Conditions | mass density [kg/m3] | viscosity [mPa·s]
298.15 K | 824.27 ± 0.27 | 9.343 ± 0.26
308.15 K | 817.36 ± 0.28 | 6.497 ± 0.19
318.15 K | 810.4 ± 0.28 | 4.674 ± 0.15
328.15 K | 803.29 ± 0.28 | 3.452 ± 0.12
338.15 K | 796.1 ± 0.29 | 2.664 ± 0.097
348.15 K | 788.72 ± 0.29 | 2.256 ± 0.087

CCCCCCCCO [octan-1-ol]
[2]
Conditions | mass density [kg/m3] | viscosity [mPa·s]
298.15 K | 821.61 ± 0.28 | 7.398 ± 0.21
308.15 K | 814.64 ± 0.28 | 5.285 ± 0.16
318.15 K | 807.57 ± 0.28 | 3.887 ± 0.13
328.15 K | 800.39 ± 0.29 | 2.931 ± 0.1
338.15 K | 793.09 ± 0.29 | 2.262 ± 0.087
348.15 K | 785.59 ± 0.29 | 1.782 ± 0.075

CCCCCCCCCCO [decan-1-ol]
[2]
Conditions | mass density [kg/m3] | viscosity [mPa·s]
298.15 K | 826.38 ± 0.27 | 11.09 ± 0.31
308.15 K | 819.53 ± 0.28 | 7.632 ± 0.22
318.15 K | 812.62 ± 0.28 | 5.375 ± 0.16
328.15 K | 805.61 ± 0.28 | 3.928 ± 0.13
338.15 K | 798.48 ± 0.29 | 2.964 ± 0.11
348.15 K | 791.21 ± 0.29 | 2.399 ± 0.09

CCCCCCCCO [octan-1-ol] + CCCCn1cc[n+](C)c1.N#C[S-]
[1], x2 = 0
Conditions | mass density [kg/m3] | viscosity [mPa·s]
298.15 K | 821.61 ± 0.28 | 7.398 ± 0.21
308.15 K | 814.64 ± 0.28 | 5.285 ± 0.16
318.15 K | 807.57 ± 0.28 | 3.887 ± 0.13
328.15 K | 800.39 ± 0.29 | 2.931 ± 0.1
338.15 K | 793.09 ± 0.29 | 2.262 ± 0.087
348.15 K | 785.59 ± 0.29 | 1.782 ± 0.075

CCCCn1cc[n+](C)c1.N#C[S-] [1-butyl-3-methylimidazolium thiocyanate]
[2]
Conditions | mass density [kg/m3] | viscosity [mPa·s]
298.15 K | 1069.79 ± 1 | 51.74 ± 0.55
308.15 K | 1063.89 ± 1 | 34.87 ± 0.96
318.15 K | 1058.02 ± 1 | 24.19 ± 0.68
328.15 K | 1052.19 ± 1 | 16.7 ± 0.48
338.15 K | 1046.43 ± 0.98 | 12.73 ± 0.37
348.15 K | 1040.7 ± 0.97 | 9.98 ± 0.3

CCCCCCCCCCO [decan-1-ol] + CCCCn1cc[n+](C)c1.N#C[S-]
[1], x2 = 0
Conditions | mass density [kg/m3] | viscosity [mPa·s]
298.15 K | 826.38 ± 0.27 | 11.09 ± 0.31
308.15 K | 819.53 ± 0.28 | 7.632 ± 0.22
318.15 K | 812.62 ± 0.28 | 5.375 ± 0.16
328.15 K | 805.61 ± 0.28 | 3.928 ± 0.13
338.15 K | 798.48 ± 0.29 | 2.964 ± 0.11
348.15 K | 791.21 ± 0.29 | 2.399 ± 0.09

CCCCCCCO [heptan-1-ol]
[2]
Conditions | mass density [kg/m3] | viscosity [mPa·s]
298.15 K | 818.81 ± 0.28 | 5.851 ± 0.18
308.15 K | 811.73 ± 0.28 | 4.26 ± 0.14
318.15 K | 804.55 ± 0.28 | 3.184 ± 0.11
328.15 K | 797.22 ± 0.29 | 2.434 ± 0.091
338.15 K | 789.75 ± 0.29 | 1.9 ± 0.078
348.15 K | 782.08 ± 0.3 | 1.512 ± 0.068

CCCCCCCCCO [nonan-1-ol] + CCCCn1cc[n+](C)c1.N#C[S-]
[1], x2 = 0
Conditions | mass density [kg/m3] | viscosity [mPa·s]
298.15 K | 824.27 ± 0.27 | 9.343 ± 0.26
308.15 K | 817.36 ± 0.28 | 6.497 ± 0.19
318.15 K | 810.4 ± 0.28 | 4.674 ± 0.15
328.15 K | 803.29 ± 0.28 | 3.452 ± 0.12
338.15 K | 796.1 ± 0.29 | 2.664 ± 0.097
348.15 K | 788.72 ± 0.29 | 2.256 ± 0.087

CCCCn1cc[n+](C)c1.N#C[S-] [1-butyl-3-methylimidazolium thiocyanate] + CCCCCCCCCO
[1]
Conditions | mass density [kg/m3] | viscosity [mPa·s]
298.15 K, x1 = 0.1203 | 855.59 ± 0.37 | 12.19 ± 0.34
298.15 K, x1 = 0.2008 | 876.27 ± 0.38 | 14.2 ± 0.39
298.15 K, x1 = 0.2814 | 896.75 ± 0.38 | 16.58 ± 0.45
298.15 K, x1 = 0.3884 | 923.66 ± 0.4 | 20.3 ± 0.54
298.15 K, x1 = 0.5697 | 968.54 ± 0.46 | 28.04 ± 0.75
298.15 K, x1 = 0.6709 | 993.14 ± 0.52 | 32.31 ± 0.86
298.15 K, x1 = 0.7658 | 1015.88 ± 0.63 | –
298.15 K, x1 = 0.8618 | 1038.46 ± 0.79 | 41.61 ± 1.1
298.15 K, x1 = 0.9651 | 1062.11 ± 0.99 | 46.89 ± 1.3
298.15 K, x1 = 1 | 1069.79 ± 1 | 51.74 ± 0.55
308.15 K, x1 = 0.1203 | 848.88 ± 0.38 | 8.664 ± 0.25
308.15 K, x1 = 0.2008 | 869.7 ± 0.38 | 10.14 ± 0.28
308.15 K, x1 = 0.2814 | 890.24 ± 0.38 | 11.81 ± 0.33
308.15 K, x1 = 0.3884 | 917.27 ± 0.4 | 14.3 ± 0.39
308.15 K, x1 = 0.5697 | 962.4 ± 0.46 | 19.35 ± 0.53
308.15 K, x1 = 0.6709 | 987.05 ± 0.52 | 22.23 ± 0.6
308.15 K, x1 = 0.7658 | 1009.89 ± 0.63 | –
308.15 K, x1 = 0.8618 | 1032.53 ± 0.78 | 27.8 ± 0.76
308.15 K, x1 = 0.9651 | 1056.18 ± 0.98 | 31.09 ± 0.86
308.15 K, x1 = 1 | 1063.89 ± 1 | 34.87 ± 0.96
318.15 K, x1 = 0.1203 | 841.98 ± 0.38 | 6.378 ± 0.19
318.15 K, x1 = 0.2008 | 862.96 ± 0.38 | 7.487 ± 0.22
318.15 K, x1 = 0.2814 | 883.74 ± 0.39 | 8.739 ± 0.25
318.15 K, x1 = 0.3884 | 910.89 ± 0.4 | 10.55 ± 0.3
318.15 K, x1 = 0.5697 | 956.26 ± 0.46 | 14.03 ± 0.39
318.15 K, x1 = 0.6709 | 981.02 ± 0.52 | 16.01 ± 0.44
318.15 K, x1 = 0.7658 | 1003.93 ± 0.62 | –
318.15 K, x1 = 0.8618 | 1026.62 ± 0.77 | 19.67 ± 0.55
318.15 K, x1 = 0.9651 | 1050.33 ± 0.96 | 21.81 ± 0.61
318.15 K, x1 = 1 | 1058.02 ± 1 | 24.19 ± 0.68
328.15 K, x1 = 0.1203 | 835.4 ± 0.39 | 4.782 ± 0.15
328.15 K, x1 = 0.2008 | 856.36 ± 0.38 | 5.662 ± 0.17
328.15 K, x1 = 0.2814 | 877.25 ± 0.39 | 6.629 ± 0.2
328.15 K, x1 = 0.3884 | 904.56 ± 0.4 | 8.032 ± 0.23
328.15 K, x1 = 0.5697 | 950.15 ± 0.47 | 10.61 ± 0.3
328.15 K, x1 = 0.6709 | 975 ± 0.52 | 12.04 ± 0.34
328.15 K, x1 = 0.7658 | 998.03 ± 0.61 | –
328.15 K, x1 = 0.8618 | 1020.79 ± 0.76 | 14.55 ± 0.41
328.15 K, x1 = 0.9651 | 1044.5 ± 0.95 | 16.06 ± 0.46
328.15 K, x1 = 1 | 1052.19 ± 1 | 16.7 ± 0.48
338.15 K, x1 = 0.1203 | 828.56 ± 0.39 | 3.695 ± 0.12
338.15 K, x1 = 0.2008 | 849.77 ± 0.39 | 4.408 ± 0.14
338.15 K, x1 = 0.2814 | 870.73 ± 0.39 | 5.139 ± 0.16
338.15 K, x1 = 0.3884 | 898.2 ± 0.41 | 6.237 ± 0.19
338.15 K, x1 = 0.5697 | 944.06 ± 0.47 | 8.26 ± 0.24
338.15 K, x1 = 0.6709 | 969.04 ± 0.52 | 9.33 ± 0.27
338.15 K, x1 = 0.7658 | 992.15 ± 0.61 | –
338.15 K, x1 = 0.8618 | 1014.99 ± 0.75 | 11.22 ± 0.32
338.15 K, x1 = 0.9651 | 1038.73 ± 0.94 | 12.32 ± 0.36
338.15 K, x1 = 1 | 1046.43 ± 0.98 | 12.73 ± 0.37
348.15 K, x1 = 0.1203 | 821.64 ± 0.39 | 2.971 ± 0.11
348.15 K, x1 = 0.2008 | 843.14 ± 0.39 | 3.521 ± 0.12
348.15 K, x1 = 0.2814 | 864.18 ± 0.4 | 4.102 ± 0.13
348.15 K, x1 = 0.3884 | 891.86 ± 0.41 | 4.962 ± 0.16
348.15 K, x1 = 0.5697 | 937.98 ± 0.47 | 6.512 ± 0.2
348.15 K, x1 = 0.6709 | 963.09 ± 0.52 | 7.404 ± 0.22
348.15 K, x1 = 0.7658 | 986.31 ± 0.61 | –
348.15 K, x1 = 0.8618 | 1009.22 ± 0.73 | 8.89 ± 0.26
348.15 K, x1 = 0.9651 | 1032.99 ± 0.92 | 9.74 ± 0.29
348.15 K, x1 = 1 | 1040.7 ± 0.97 | 9.98 ± 0.3
